Values quoted from earlier work in patent publication US20240074994A1, “COMPOSITION OF CHLORHEXIDINE” (priority 2022, published 2024).

Columns and labels:
HSV-1 [1] = settings: Vero cell monolayers
HSV-1 [2] = settings: 0.2% applied topically onto HSV-1 infected forehead skin of mice

## Chlorhexidine
HSV-1 [1]
  cytolytic activity of HSV-1: moderately, but significantly, inhibited
  replication of HSV-1: moderately, but significantly, inhibited
HSV-1 [2]
  development of viral lesions: moderately reduced
  viral titers in the skin and trigeminal ganglia: moderately reduced
